Reference: PubChem BioAssay AID651650 (Sanford-Burnham Center for Chemical Genomics, 2012)
Active and inactive are the calls of the source.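 The calls were made as follows: active = mean IC50 below 20 µM in each of the two panels, so potent in both; inactive = the rest.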

Each compound was assayed against Neuropilin-1 (Homo sapiens) (UniProt O14786) (assay: blockers of CendR peptide binding to NRP-1 – biochemical, FP and AlphaScreen panel, dose response (AID 651650)). Conditions: NRP-1 b1b2 / RPARPAR peptide binding, FP or AlphaScreen; FP, mean of runs.
Sequence of Neuropilin-1 (Homo sapiens) (O14786 whole entry, looked up): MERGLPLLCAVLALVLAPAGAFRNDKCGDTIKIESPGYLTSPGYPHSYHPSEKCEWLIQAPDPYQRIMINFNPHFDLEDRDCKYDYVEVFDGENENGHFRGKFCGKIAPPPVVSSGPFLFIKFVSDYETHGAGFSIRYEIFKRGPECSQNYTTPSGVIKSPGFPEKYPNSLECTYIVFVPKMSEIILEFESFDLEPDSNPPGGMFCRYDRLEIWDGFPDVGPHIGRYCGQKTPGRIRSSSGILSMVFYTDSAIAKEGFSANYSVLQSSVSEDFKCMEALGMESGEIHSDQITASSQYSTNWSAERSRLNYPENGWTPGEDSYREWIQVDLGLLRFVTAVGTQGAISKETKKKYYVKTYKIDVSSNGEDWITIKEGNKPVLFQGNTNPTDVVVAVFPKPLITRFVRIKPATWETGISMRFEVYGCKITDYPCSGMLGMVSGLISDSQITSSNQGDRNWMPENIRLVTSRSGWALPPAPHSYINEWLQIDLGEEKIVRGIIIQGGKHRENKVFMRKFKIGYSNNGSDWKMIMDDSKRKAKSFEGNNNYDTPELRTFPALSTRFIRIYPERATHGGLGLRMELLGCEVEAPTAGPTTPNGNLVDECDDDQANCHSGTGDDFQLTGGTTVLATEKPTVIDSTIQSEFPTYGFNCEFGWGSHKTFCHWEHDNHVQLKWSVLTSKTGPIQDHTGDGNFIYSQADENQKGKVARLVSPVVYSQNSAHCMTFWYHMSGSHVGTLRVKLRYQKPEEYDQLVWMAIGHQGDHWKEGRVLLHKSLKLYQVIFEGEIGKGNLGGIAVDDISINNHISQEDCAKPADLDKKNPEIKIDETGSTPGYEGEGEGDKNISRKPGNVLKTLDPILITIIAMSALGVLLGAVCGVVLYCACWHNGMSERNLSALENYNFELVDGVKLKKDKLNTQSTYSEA
For `CCn1cc(C(=O)N2CCN(C(=O)c3ccco3)CC2)c2cc(OC)c(OC)cc2c1=O`, the IC50 was > 95 µM (inactive).
For `CC(CN1CCOCC1)OC(=O)c1ccc2c(c1)OCCO2` (stereo not given), the IC50 was > 95 µM (inactive).
For `CCOC(=O)[C@@H]1[C@H]2COc3ccccc3[C@@H]2N2C(=O)N(c3ccc(Cl)cc3)C(=O)[C@]12C`, the IC50 was > 95 µM (inactive).
For `Cc1ccc(NC(=O)c2ccc3c(c2)OCCO3)cc1S(=O)(=O)Nc1cccc(Cl)c1`, the IC50 was > 95 µM (inactive).
With `O=C(O)CCCC(=O)N1CCc2cc(S(=O)(=O)N3CCc4ccccc43)ccc21` the IC50 was > 95 µM (inactive).
In the case of `CCCN(C(=O)Cn1c(C(F)(F)F)nc2ccccc21)C1CCS(=O)(=O)C1` (stereo not given), the IC50 is reported as > 95 µM (inactive).
With `Cc1ccc(C2(O)CCN3CCCCC32)cc1` (stereo not given) the IC50 was > 95 µM (inactive).
`Cc1ccccc1-n1ncc2c1CC(C)(C)CC2NC(=O)c1ccncc1` (stereo not given) was tested, and the IC50 was > 95 µM (inactive).
With `CCn1ncc(Br)c1C(=O)N(C)C12CC3CC(CC(C3)C1)C2` the IC50 was > 95 µM (inactive).
For `COc1ccc(C(CNc2ccc(S(=O)(=O)N3CCCC3)cc2[N+](=O)[O-])N2CCCC2)cc1` (stereo not given), the IC50 was > 95 µM (inactive).
For `OCCNc1ncnc2ccc(Br)cc12`, the IC50 was > 95 µM (inactive).
In the case of `NC(=O)c1c(NC(=O)C(=O)N2CCOCC2)sc2c1CCCC2`, the IC50 is reported as > 95 µM (inactive).
In the case of `COc1ccc2c(c1OC)CN1CCc3cc4c(cc3[C@@H]1[C@@H]2O)OCO4`, the IC50 is reported as > 95 µM (inactive).

Same assay, conditions: NRP-1 b1b2 / RPARPAR peptide binding, FP or AlphaScreen; FP, run 1; individual panel run IC50
Work on `CCOC(=O)C1CCN(S(=O)(=O)c2ccc3c(c2)CCN3C(=O)C2CCC2)CC1` yielded an IC50 of over 95 µM.
Work on `CCc1ccc(NS(=O)(=O)c2c(C(=O)N3CCCCCC3)c(C)n(C)c2C)cc1` yielded an IC50 of over 95 µM.
`O=C(CSc1nc2ccccc2c(=O)n1-c1ccc(F)cc1F)Nc1ccc2c(c1)CCC2` showed an IC50 of over 95 µM.
For `Nc1cc(S(=O)(=O)O)cc([N+](=O)[O-])c1O`, the IC50 was over 95 µM.
In the case of `O=C(O)C1CCN(C(=O)c2ccc(Cl)cc2)CC1`, the IC50 is reported as over 95 µM.
Work on `CNc1nc(-c2ccc3c(c2)CCN3C(=O)c2ccccc2F)cs1` yielded an IC50 of over 95 µM.
For `COc1c2ccc(C(=O)NCc3cc(C(F)(F)F)cc(C(F)(F)F)c3)cc2nn1C`, the IC50 was over 95 µM.
In the case of `Cc1ccc(CN(CC(=O)NC2CCCCC2)C(=O)c2csnn2)cc1`, the IC50 is reported as over 95 µM.
For `CC(C)(C)n1cnc2cc(NC(=O)c3ccccc3)ccc21`, the IC50 was over 95 µM.
`COc1cc(CN2C[C@@H](CO)O[C@@H](n3cnc4c(N5CCN(c6ccccc6)CC5)ncnc43)C2)cc(OC)c1OC` was tested, and the IC50 was over 95 µM.
With `Fc1cc(Cl)ccc1Nc1nc(NCc2ccccc2)nc2ccsc12` the IC50 was over 95 µM.
In the case of `COc1cccc(N2[C@@H](CC(C)=O)c3ccc(/C=C/C(C)=O)cc3S2(=O)=O)c1`, the IC50 is reported as over 95 µM.
With `CC(=O)/C(=N\Nc1ccc(Cl)cc1Cl)Sc1cccc2cccnc12` the IC50 was over 95 µM.
In the case of `CCn1cc(C(=O)N2CCN(C(=O)c3ccco3)CC2)c2cc(OC)c(OC)cc2c1=O`, the IC50 is reported as over 95 µM.
With `CC(CN1CCOCC1)OC(=O)c1ccc2c(c1)OCCO2` (stereo not given) the IC50 was over 95 µM.
`CCOC(=O)[C@@H]1[C@H]2COc3ccccc3[C@@H]2N2C(=O)N(c3ccc(Cl)cc3)C(=O)[C@]12C` was tested, and the IC50 was over 95 µM.
`Cc1ccc(NC(=O)c2ccc3c(c2)OCCO3)cc1S(=O)(=O)Nc1cccc(Cl)c1` was tested, and the IC50 was over 95 µM.
Work on `O=C(O)CCCC(=O)N1CCc2cc(S(=O)(=O)N3CCc4ccccc43)ccc21` yielded an IC50 of over 95 µM.
In the case of `CCCN(C(=O)Cn1c(C(F)(F)F)nc2ccccc21)C1CCS(=O)(=O)C1` (stereo not given), the IC50 is reported as over 95 µM.
For `Cc1ccc(C2(O)CCN3CCCCC32)cc1` (stereo not given), the IC50 was over 95 µM.
In the case of `Cc1ccccc1-n1ncc2c1CC(C)(C)CC2NC(=O)c1ccncc1` (stereo not given), the IC50 is reported as over 95 µM.
`CCn1ncc(Br)c1C(=O)N(C)C12CC3CC(CC(C3)C1)C2` was tested, and the IC50 was over 95 µM.
In the case of `COc1ccc(C(CNc2ccc(S(=O)(=O)N3CCCC3)cc2[N+](=O)[O-])N2CCCC2)cc1` (stereo not given), the IC50 is reported as over 95 µM.
`OCCNc1ncnc2ccc(Br)cc12` gave an IC50 of over 95 µM.
With `NC(=O)c1c(NC(=O)C(=O)N2CCOCC2)sc2c1CCCC2` the IC50 was over 95 µM.
`COc1ccc2c(c1OC)CN1CCc3cc4c(cc3[C@@H]1[C@@H]2O)OCO4` was tested, and the IC50 was over 95 µM.

Same assay, conditions: NRP-1 b1b2 / RPARPAR peptide binding, FP or AlphaScreen; FP, run 2; individual panel run IC50
`CCOC(=O)C1CCN(S(=O)(=O)c2ccc3c(c2)CCN3C(=O)C2CCC2)CC1` gave an IC50 of over 95 µM.
With `CCc1ccc(NS(=O)(=O)c2c(C(=O)N3CCCCCC3)c(C)n(C)c2C)cc1` the IC50 was over 95 µM.
Work on `O=C(CSc1nc2ccccc2c(=O)n1-c1ccc(F)cc1F)Nc1ccc2c(c1)CCC2` yielded an IC50 of over 95 µM.
`Nc1cc(S(=O)(=O)O)cc([N+](=O)[O-])c1O` showed an IC50 of over 95 µM.
For `O=C(O)C1CCN(C(=O)c2ccc(Cl)cc2)CC1`, the IC50 was over 95 µM.
Compound `CNc1nc(-c2ccc3c(c2)CCN3C(=O)c2ccccc2F)cs1` has an IC50 of over 95 µM.
`COc1c2ccc(C(=O)NCc3cc(C(F)(F)F)cc(C(F)(F)F)c3)cc2nn1C` gave an IC50 of over 95 µM.
In the case of `Cc1ccc(CN(CC(=O)NC2CCCCC2)C(=O)c2csnn2)cc1`, the IC50 is reported as over 95 µM.
Work on `CC(C)(C)n1cnc2cc(NC(=O)c3ccccc3)ccc21` yielded an IC50 of over 95 µM.
`COc1cc(CN2C[C@@H](CO)O[C@@H](n3cnc4c(N5CCN(c6ccccc6)CC5)ncnc43)C2)cc(OC)c1OC` was tested, and the IC50 was over 95 µM.
For `Fc1cc(Cl)ccc1Nc1nc(NCc2ccccc2)nc2ccsc12`, the IC50 was over 95 µM.
Work on `COc1cccc(N2[C@@H](CC(C)=O)c3ccc(/C=C/C(C)=O)cc3S2(=O)=O)c1` yielded an IC50 of over 95 µM.
With `CC(=O)/C(=N\Nc1ccc(Cl)cc1Cl)Sc1cccc2cccnc12` the IC50 was over 95 µM.
Work on `CCn1cc(C(=O)N2CCN(C(=O)c3ccco3)CC2)c2cc(OC)c(OC)cc2c1=O` yielded an IC50 of over 95 µM.
`CC(CN1CCOCC1)OC(=O)c1ccc2c(c1)OCCO2` (stereo not given) showed an IC50 of over 95 µM.
`CCOC(=O)[C@@H]1[C@H]2COc3ccccc3[C@@H]2N2C(=O)N(c3ccc(Cl)cc3)C(=O)[C@]12C` was tested, and the IC50 was over 95 µM.
`Cc1ccc(NC(=O)c2ccc3c(c2)OCCO3)cc1S(=O)(=O)Nc1cccc(Cl)c1` was tested, and the IC50 was over 95 µM.
In the case of `O=C(O)CCCC(=O)N1CCc2cc(S(=O)(=O)N3CCc4ccccc43)ccc21`, the IC50 is reported as over 95 µM.
For `CCCN(C(=O)Cn1c(C(F)(F)F)nc2ccccc21)C1CCS(=O)(=O)C1` (stereo not given), the IC50 was over 95 µM.
`Cc1ccc(C2(O)CCN3CCCCC32)cc1` (stereo not given) showed an IC50 of over 95 µM.
`Cc1ccccc1-n1ncc2c1CC(C)(C)CC2NC(=O)c1ccncc1` (stereo not given) showed an IC50 of over 95 µM.
`CCn1ncc(Br)c1C(=O)N(C)C12CC3CC(CC(C3)C1)C2` was tested, and the IC50 was over 95 µM.
With `COc1ccc(C(CNc2ccc(S(=O)(=O)N3CCCC3)cc2[N+](=O)[O-])N2CCCC2)cc1` (stereo not given) the IC50 was over 95 µM.
With `OCCNc1ncnc2ccc(Br)cc12` the IC50 was over 95 µM.
`NC(=O)c1c(NC(=O)C(=O)N2CCOCC2)sc2c1CCCC2` showed an IC50 of over 95 µM.
`COc1ccc2c(c1OC)CN1CCc3cc4c(cc3[C@@H]1[C@@H]2O)OCO4` gave an IC50 of over 95 µM.
